Values after ≈ are worked out from the molar mass of the structure shown.
Experiments:
[1] = Solubility of bimatoprost in water; type: physicochemical; conditions: room temperature
Description: (§1) FIGS. 2A, 2B, 2C, 2D, 2E, and 2F illustrate the chemical structure of bimatoprost (AGN 192024, FIG. 2A), 15β bimatoprost (FIG. 2B); 5,6-trans bimatoprost isomer (FIG. 2C); C1 acid of bimatoprost (FIG. 2D); triphenyphosphine oxide (TPPO; FIG. 2E); and 15-Keto bimatoprost (FIG. 2F). Bimatoprost is the active ingredient and the other chemicals are impurities that may be present. […] Bimatoprost is a non-ionizable compound.

[2] = Ionisability of bimatoprost; type: physicochemical
Description: as §1

[3] = Effects of gamma sterilization on the stability of bimatoprost; type: physicochemical
Experimental: The formula abbreviations correspond to compounds illustrated in FIGS. 2A-2F. High performance liquid chromatography was used to quantify bimatoprost and impurities present in the microparticles. Analytes were eluted from a Waters Symmetry® C18 reverse-phase column using a mobile phase composed of 72/18/10 (water/acetonitrile/methanol v/v/v) containing 0.03% (w/v) trifluoroacetic acid. UV detection was performed at 210 nm.

[4] = type: physicochemical
Description: as §1

solubility [1]: 3200 µg/mL (≈ 7.7 mM)
ionisability [2]: non-ionizable
% wt/wt 5,6-trans ([3]; gamma sterilized): 0.1 % wt/wt
% wt/wt 15β ([3]; gamma sterilized): 0.1 % wt/wt
% wt/wt bimatoprost ([3]; gamma sterilized): 85.3 % wt/wt
% wt/wt, 15-keto ([3]; gamma sterilized): 2.3 % wt/wt
decrease of the amount of active bimatoprost by gamma sterilization ([3]; gamma sterilized vs none sterilized): about 10%
% wt/wt 5,6-trans ([3]; none sterilized): 0.1 % wt/wt
% wt/wt 15β ([3]; none sterilized): 0.2 % wt/wt
% wt/wt bimatoprost ([3]; none sterilized): 95.3 % wt/wt
% wt/wt, 15-keto ([3]; none sterilized): 1.0 % wt/wt
partition coefficient Log P [4]: 2.4 plus or minus 0.1
SMILES: CCNC(=O)CCC/C=C\C[C@@H]1[C@@H](/C=C/[C@@H](O)CCc2ccccc2)[C@H](O)C[C@@H]1O [Bimatoprost]
